Measurements: US6403619B1, “Method for controlling cell necrosis or apoptosis” (University of Kentucky Research Foundation, priority 1998, dated 2002)

Tests used:
[1] = system: Malignant epithelial cells; test: Doubling of malignant epithelial cell populations under PARP (tankyrase) inhibition; assay type: cell-based; settings: 0.1 M; after 10 weeks; compared with control grown without it; FIG. 20
Protocol: Malignant epithelial cells were grown in the presence of 0.1 M benzamide, which is known to inhibit all PARPs. The doubling of the cell populations was observed over a period of time, and compared to a control, which was grown in the absence of benzamide.

[2] = Local vasodilation following topical application of cream (assesses rate of hydrolysis to nicotinate); assay type: in vivo; settings: for duration of vasodilation / onset of vasodilation: topical application of a cream containing 0.05%
Description: The next issue considered was the rate of hydrolysis of topically applied pro-NAD agents to nicotinic acid such that conversion to NAD can be completed by the pathway shown in FIG. 11. The rates of hydrolysis of a pro-NAD agent following topical application can be assessed by evaluation of local vasodilation following topical application of a pro-NAD agent. […] Experiments have compared the absence or presence of vasodilation (and the time course of vasodilation when present) for a number of the pro-NAD agents shown in FIG. 13. For example, application of a cream containing 0.05% hexylnicotinate results in vasodilation with onset at approximately 10 minutes and duration of approximately 90 minutes. A similar application of octylnicotinate results in an onset of vasodilation at approximately 15 minutes with duration of 360 minutes. […] These experiments indicate that tetradecylnicotinate is released very slowly following application. Two factors are likely involved in the rate of hydrolysis of topically applied pro-NAD agents, the rate of departure from the stratum corneum and the rate of hydrolysis by esterases present in the epidermal and dermal layers of the skin.

human skin fibroblasts = test: Bioconversion of pro-NAD agents to NAD by skin fibroblasts in culture; assay type: cell-based; settings: FIG. 11
Protocol: A series of experiments were performed to determine the possible classes of pro-NAD agents that may be used for the elevation of skin cell NAD content by topical application. Any compound that can be converted to NAD is referred to here as a “pro-NAD” agent.

cells [3] = test: DNA integrity following genotoxic stress induced by MNNG; assay type: cell-based; settings: high levels (500 micromolar) compared with normal levels (50 micromolar), FIG. 12A
Protocol: The DNA repair proficiency as a function of NAD content has been assessed also by a technique called a “comet assay.” In a comet assay (O. Ostling and K. J. Johanson, Biochem. Biophys. Res. Commun. 123: 291 (1984); P. L. Olive and J. P. Banath, Exp. Cell Res. 221: 19 (1995)), cells are plated out after embedding into liquid agarose on a carrier and lysed in situ after formation of an agarose gel. The DNA of the individual cells is then separated in situ in an electric field. Damaged DNA containing strand breaks migrates away from the cell nucleus due to its smaller size and this migration results in an image where the nucleus appears as the head of the comet and the broken DNA appears as tail of the comet. The more degraded the genomic DNA is, the greater the amount of migration-capable DNA and the longer the “comet tail.”

Epithelial cells = test: Necrosis and apoptosis of epithelial cells under MNNG genotoxic stress; assay type: cell-based
Protocol: Epithelial cells were subjected to genotoxic stress with the alkylating agent N-methyl-N^1-nitro-N-nitrosoguanidine, or “MNNG” as referred to supra and hereafter. Epithelial cells were cultured in the presence of either no MNNG, 10 μg/mL MNNG, or 20 μg/mL of MNNG, in medium containing either 0, 50 μM or 500 μM nicotinamide. Percent necrosis and apoptosis was studied over time, i.e., for 48 hours. […] Nicotinamide is converted to NAD, but as indicated, none was added in the experiments depicted in 17A and 17D.

cells [4] = test: Survival under oxidative genotoxic stress caused by staurosporin; assay type: cell-based; settings: 50 μM in medium compared with none; different concentrations of staurosporin; FIG. 19
Protocol: These experiments describe studies on oxidative genotoxic stress, caused by staurosporin. Cells were contacted with different concentrations of staurosporin, and were cultured in medium that either contained no nicotinamide or 50 μM nicotinamide.

p53 = settings: high levels of the agent; in the absence of and following genotoxic stress; FIG. 12B
Protocol: Briefly, cells were grown in control or suboptimal niacin media as described in Example 1 above, resulting in cells with normal or low NAD content. The protein of the cells was then extracted and portions of the extract were separated by SDS-polyacrylamide gel electrophoresis (SDS-PAGE) and p53 protein content was determined by immunoblotting (western blotting). […] FIG. 9B compares the relative content of p53 following genotoxic stress caused by the alkylating agent MNNG in cells with a low or normal NAD content.

[5] = Octanol/water partition coefficient; assay type: physicochemical; settings: extrapolated from Po/w values of the shorter esters; FIG. 14
Description: The first issue considered was the physical-chemical properties of the pro-NAD agents most desirable for topical application. The nicotinic acid molecule may not be optimal because it may be too polar to be effectively delivered to skin cells topically. Molecules that are too polar may not effectively partition into the apolar stratum corneum layer of skin and following passage across the stratum corneum, it would be expected to rapidly enter the systemic circulation. To evaluate the potential of these pro-NAD agents to partition into the stratum corneum, the octanol/water partition coefficients for the methyl, eythl-, butyl-, hexyl-, and octyl-esters of nicotinate were experimentally determined.
The octanol/water partition coefficient was determined by dissolving a known amount of pro-NAD agent in water and then mixing the aqueous compound with a known volume of octanol. After mixing for a period of 1 to 18 hours, aliquots of the water phase were analyzed by HPLC for the amount of remaining pro-NAD agent. The partition coefficient (P) was calculated from the following equation:
log Po/w=log10((Co−C)CVo))
where Co is the initial concentration in water and C is the concentration after partitioning. Vw and Vo represent the volume of water and octanol phases respectively.

NAD content of skin = test: Skin NAD content after topical application, hairless mouse model; assay type: in vivo
Protocol: (§1) Based on evaluation of pro-NAD agents, proof of principle experiments for elevation of skin cell NAD content by topical delivery were performed using a hairless mouse model. In brief, tetradecylnicotinate was used for the initial studies. In the study three daily topical applications of 1% tetradecylnicotinate cream to the back of the animals and no cream were applied to the abdomen. Immediately following the third application, the skin from the back and abdomen were analyzed for NAD content. Test samples of skin were frozen in liquid nitrogen and powdered by mechanical means. NAD content was assessed as described previously (Jacobson, E L, and Jacobson, M K Meth Enzymol 280, 221-230, 1997; Jacobson, E L et al., J Cell Physiol 99, 417-426, 1979). The NAD assay is based on the principle of enzymic cycling between oxidized and reduced states, in which NAD is rate-limiting for a series of amplification reactions. Total protein was assayed by the Bradford assay.
(§2) In another experiment, the effect of the number of daily application of 1% tetradecylnicotinate cream was examined. Again, application was made to the back of the animal and the abdomen of each animal served as control.

[6] = Signs of toxicity after topical application, hairless mouse model; assay type: in vivo; settings: topical 1% cream, experiments of FIGS. 15 and 16
Protocol: as §1, §2

[7] = varying number of daily applications of 1% cream to the back, FIG. 16

With `NC(=O)c1ccccc1` [benzamide] the “doubling of the cell populations” value [1] was “stopped doubling”.
For `CCCCCCOC(=O)c1cccnc1` [hexylnicotinate], the duration of vasodilation [2] was “approximately 90 minutes” and the onset of vasodilation [2] was “approximately 10 minutes”.
With `NC(=O)c1cccnc1` [nicotinamide] the “bioconversion to NAD” value (human skin fibroblasts) was “can be bioconverted to NAD”, the DNA integrity (cells [3]) was “decreased DNA integrity” and the “response (necrosis, apoptosis) to MNNG induced genotoxic shock” value (Epithelial cells; 500 μM in medium, MNNG 10 or 20 μg/mL, 48 hours, FIGS. 17C and 17F) was “Normal responses were not established”. For the same compound, the “involvement in cell death pathways (cellular morphology over time)” value (Epithelial cells; none, 50 μM or 500 μM in medium, FIGS. 18A-18D) was “involved in cellular necrosis pathways much more than in apoptosis pathways”, the “rate of cell death (percentage survival)” value (cells [4]) was “rate of cell death is decreased significantly” and the “p53 levels / p53-signaling response” value (p53) was “abnormally high levels of p53”.
With `O=C(O)c1cccnc1` [nicotinic acid] the “bioconversion to NAD” value (human skin fibroblasts) was “can be bioconverted to NAD”.
With `CCCCCCCCCCCCCCCCCCOC(=O)c1cccnc1` [octadecylnicotinate] the “properties for partitioning into the stratum corneum (Po/w predicted by extrapolation)” value [5] was “favorable properties for partitioning into the stratum corneum”.
For `CCCCCCCCOC(=O)c1cccnc1` [octylnicotinate], the duration of vasodilation [2] was 360 min and the onset of vasodilation [2] was “approximately 15 minutes”.
For `CCCCCCCCCCCCCCOC(=O)c1cccnc1` [tetradecylnicotinate], the “properties for partitioning into the stratum corneum (Po/w predicted by extrapolation)” value [5] was “favorable properties for partitioning into the stratum corneum”, the vasodilation ([2]; similar topical application of cream (0.05%)) was “does not result in vasodilation” and the “NAD content of skin removed from the abdomen (no cream applied)” value (NAD content of skin; three daily applications of 1% cream to the back, FIG. 15) was “not increased”. The “skin NAD content relative to control animal treated with base cream only” value (NAD content of skin; three daily topical applications of 1% cream to the back, back skin, FIG. 15) was 143%, the “NAD content of skin removed from the back” value (NAD content of skin; [7]) was “increased as a function of the number of daily applications” and the “NAD content of the abdomen (control site)” value (NAD content of skin; [7]) was “did not increase”. The signs of toxicity [6] was “in no case were any signs of toxicity observed”.
